The values below come from US20250228850A1, “COMBINATION OF A CXCR7 ANTAGONIST WITH AN S1P1 RECEPTOR MODULATOR” (Idorsia Pharmaceuticals Ltd., priority 2019, published 2025).

The structures appear in SMILES notation.

In data set [1] the test system is lymphocyte count in peripheral blood. In words: Dose finding of fingolimod in healthy mice, lymphocyte count in peripheral blood. In kind it is in vivo, mouse (C57BL/6). The protocol: In parallel to the measurement of target engagement of COMPOUND, a second pilot experiment is performed. Healthy female C57BL/6 receive fingolimod at different doses in the range from 0.01 to 0.3 mg/kg, once daily (q.d.). The goal is to assess the dose-effect relationship of fingolimod on lymphocyte count in peripheral blood (which is an established biomarker to monitor pharmacological activity of S1P1 receptor modulators) in this strain of mouse over 24 h.

Data set [2] has as its system MOG-induced EAE mice. In words: Monotherapy efficacy experiment in MOG-induced EAE model (preventive setting). In kind it is in vivo, mouse (C57BL/6). The method, then:
Female C57BL/6 mice are immunized with an emulsion of MOG in complete Freund's adjuvant (CFA) and pertussis toxin (day 0). A total of 150 μg of MOG is injected per mice at two sites subcutaneously in each flank of the abdomen. Mice are injected intraperitoneally with pertussis toxin a second time, 2 days after the first injection (day 2). Within 9 to 14 days, mice develop signs of paralysis which will be graded on a scale from 0 to 5 assessing the tail and limbs defined as: 0=no clinical sign of EAE, 0.5=end tail paralyzed or one limb weakness, 1=tail paralyzed or two limbs weakness, 1.5=tail paralyzed and one hind limb weakness, 2=tail paralyzed and bilateral partial hind limb paralysis, 2.5=tail paralyzed and unilateral complete hind limb paralysis, 2.75=score of 2.5+unilateral partial hind limb paralysis, 3=complete bilateral hind limb paralysis, 3.25=3+unilateral partial forelimb paralysis, 3.5=3+unilateral complete forelimb paralysis, 4=complete paralysis (moribund) and, 5=death or euthanized.
The disease progression follows a chronic progressive course with no remission.
It consists of four treatment groups: • 1. Vehicle (water) b.i.d., from day 0 • 2.
Clinical scores are assessed on a daily basis and disease development is compared between vehicle-treated mice and mice receiving COMPOUND. The cumulative disease score is calculated for each mouse by summing all the daily clinical scores over the 29-days study period. The experiment is terminated at day 29, 1 to 4 hours post dosing. […] CXCL12 plasma concentrations are determined using a commercial quantikine ELISA mouse CXCL12/SDF1c kit from R&D systems, according to manufacturer's instructions.
Groups of 10 mice are dosed orally starting at the day of disease induction (day 0). It consists of two treatment groups: • 1. Vehicle (0.5% Methylcellulose/0.5% Tween® 80) b.i.d., from day 0 • 2. Fingolimod (0.03 mg/kg) q.d.+Vehicle q.d., from day 0
Clinical scores are assessed on a daily basis and disease development is compared between vehicle-treated mice and mice receiving fingolimod. The cumulative disease score is calculated for each mouse by summing all the daily clinical scores over the 27-days study period. The experiment is terminated at day 27.

Data set [3] deals with MOG-induced EAE mice. In words: Combination efficacy experiment in the MOG-induced EAE model (therapeutic setting). In kind it is in vivo, mouse (C57BL/6). The protocol: The combination efficacy experiment is performed in the same mouse EAE model as described for the pilot experiments.
Groups of 10 mice are dosed orally starting just before the onset of disease (day 7). It consists of four treatment groups: • 1. Vehicle (0.5% Methylcellulose/0.5% Tween® 80) b.i.d., from day 7 • 2. Fingolimod (0.03 mg/kg) q.d.+Vehicle q.d., from day 7 • 3.
Clinical scores are assessed on a daily basis and disease development is compared between vehicle-treated mice and mice receiving the different treatments. The experiment is terminated at day 16 or day 17. Hematology parameters, including lymphocyte count, are measured at the termination of the experiment. […] CXCL12 plasma concentrations are determined using a commercial quantikine ELISA mouse CXCL12/SDF1c kit from R&D systems, according to manufacturer's instructions.

Data set [4] deals with cuprizone-induced demyelination mice. In words: Cuprizone-induced demyelination model with cuprizone withdrawal, Experiment 2. In kind it is in vivo, mouse (C57BL/6). Conditions: week 5 to week 7; COMPOUND 100 mg/kg b.i.d., fingolimod 0.3 mg/kg q.d. The method, then: Male C57BL/6 mice are exposed to a 0.2% cuprizone diet for six weeks and then switched to control food for one more week. Groups of 8-9 mice are dosed orally starting after five weeks of cuprizone exposure. It consists of three treatment groups: • 1. Vehicle (0.5% Methylcellulose/0.5% Tween® 80) b.i.d., from week 5 to week 7 • 2. Fingolimod (0.3 mg/kg) q.d.+Vehicle q.d., from week 5 to week 7 • 3. […] Hematology parameters, including lymphocyte count, are measured at the termination of the experiment, one hour after the last dosing. […] Brain samples are isolated and fixed for histopathological and immunohistochemistry examinations to assess the degree of demyelination (Luxol Fast Blue for myelin staining).

Data set [5] has as its system patients. As to conditions: cited from earlier work.
For data set [6], the system named is lymphocyte count in peripheral blood. In words: Dose finding of siponimod in healthy SJL/J mice, alone and with COMPOUND
It is filed as in vivo, mouse (SJL/J). Conditions: siponimod 0.3 mg/kg q.d. oral, healthy female SJL/J mice. The protocol:
In a pilot experiment, healthy female SJL/J mice are dosed orally for 2 to 3 days with siponimod at different doses in the range from 0.03 to 1 mg/kg, once daily. The goal is to assess the dose-effect relationship of siponimod on lymphocyte count in peripheral blood (which is an established biomarker to monitor pharmacological activity of S1P1 receptor modulators) in this strain of mouse over 24 h.

Take `CCCCCCCCc1ccc(CCC(N)(CO)CO)cc1` [fingolimod, 2-amino-2-[2-(4-octylphenyl)ethyl]-propane-1,3-diol, reference compound]: in data set [1] (fingolimod 0.03 mg/kg q.d., healthy female C57BL/6), the “lymphocyte count reduction over 24 h” value was “partial efficacy”. Further, the “lymphocyte count reduction over 24 hours” value in data set [1] (fingolimod 0.3 mg/kg q.d.) is “fully efficacious”. In addition, in data set [2] (fingolimod 0.03 mg/kg q.d. from day 0), the “plasma CXCL12 levels” value is “not associated with an increase”. Also, the “overall extent of EAE disease, cumulative disease scores over the 27-days study” value in data set [2] (fingolimod 0.03 mg/kg q.d. oral from day 0 (preventive)) is listed as “exhibits efficacy”. Besides, the “lymphocyte count in peripheral blood” value in data set [3] (fingolimod 0.03 mg/kg q.d. from day 7, at termination) is given as “reduction”. Further, the “efficacy on the clinical scores of the disease” value in data set [3] (from day 7 (just before onset), COMPOUND 100 mg/kg b.i.d., fingolimod 0.03 mg/kg q.d., combination effect from day 14 onwards) is recorded as “minimal”. The “spontaneous remyelination in the corpus callosum one week after CPZ withdrawal” value in data set [4] was “no effect”. In data set [5] (fingolimod, human), the “time for lymphocyte counts to return to the normal range after stopping therapy” value was 1-2 months and the “time remaining in the blood with pharmacodynamic effects (decreased lymphocyte counts) following the last dose” value was “up to 2 months”.
Take `CCc1cc(/C(C)=N/OCc2ccc(C3CCCCC3)c(C(F)(F)F)c2)ccc1CN1CC(C(=O)O)C1` [siponimod, 1-(4-[1-[(E)-4-Cyclohexyl-3-trifluoromethyl-benzyloxyimino]-ethyl]-2-ethyl-benzyl)-azetidine-3-carboxylic acid]: in data set [6], the “lymphocyte count reduction over 24 h” value is “full efficacy”. Also, in data set [5] (siponimod, human), the “persistence of residual pharmacodynamics effects (lowering of peripheral lymphocyte count) after the last dose” value is recorded as 3-4 weeks and the “time remaining in the blood after stopping therapy” value was “up to 10 days”. The “patients whose lymphocyte counts returned to the normal range” value in data set [5] (siponimod, within 10 days of stopping therapy) is 90 % of patients.
